Results taken from patent publication US5319139A, “Naphthalene derivatives” (Eisai Co. Ltd., priority 1990, dated 1994).

Experiments:
[1] = tested on: LTB4 production from human neutrophil; assay: Activity against LTB4 production from human neutrophil; type: cell-based; details: human peripheral blood neutrophils, preincubated 37° C. 5 minutes, calcium ionophore A23187 2 μg/ml, 10 minutes, radioimmunoassay, read-out: Inhibitory activity against LTB4 production from human neutrophil IC50
Description: Activity against LTB4 production from human neutrophil
A test compound was added to a suspension of neutrophil separated from the human peripheral blood and the obtained mixture was preincubated at 37° C. for 5 minutes, followed by the addition of calcium ionophore A23187 in an amount of 2 μg/ml. After 10 minutes, the obtained mixture was cooled to stop the reaction. The amount of LTB4 contained in the supernatant of the reaction mixture was determined by radioimmunoassay (see H. Shirota et al., Arzneim Forsol Drug Res., 37 (1987) 930).

[2] = tested on: PGE2 production from synovial cells of rat; assay: Activity against the PGE2 production from cultured synovial cell of rat; type: cell-based, rat (Lewis male); details: 24 h, cultured rat synovial cells stimulated with neutrophil-originating factor (IL-1-like factor), PGE2 after one day by radioimmunoassay, read-out: Inhibitory activity against PGE2 production from synovial cells of rat IC50
Description: Activity against the PGE2 production from cultured synovial cell of rat
A synovial membrane taken out of the knee joint of a Lewis male rat was treated with collagenase-trypsin to separate off synovial cells. A test compound was added to a system prepared by the subculture of the synovial cells. The cells were stimulated with a neutrophil-originating factor (IL-1-like factor) to induce PGE2 production. After one day, the amount of PGE2 liberated into the culture medium was determined by radioimmunoassay (see R. Hashida et al., Prostaglandins, 27 (1984), 697).

SMILES | IC50 [1] | IC50 [2]
COc1cc(/C(=C/C(C)C)C(=O)O)c2cccc(Cc3ccccc3)c2c1O [Example 4, (Z)-2-(5-Benzyl-4-hydroxy-3-methoxy-1-naphthyl)-4-methyl-2-pentenoic acid] | 1680 nM | 2760 nM
CCCC/C=C(\C(=O)O)c1cc(OC)c(O)c2c(Cc3ccccc3)cccc12 [Example 7, (Z)-2-(5-benzyl-4-hydroxy-3-methoxy-1-naphthyl)-2-heptenoic acid] | > 10000 nM | 3100 nM
COc1cc(/C(=C/c2ccccc2)C(=O)O)c2cccc(Cc3ccccc3)c2c1O [Example 10, (Z)-2-(5-benzyl-4-hydroxy-3-methoxy-1-naphthyl)-3-phenyl-2-propenoic acid] | 1860 nM | 2100 nM
COc1cc(/C(=C/Cc2ccccc2)C(=O)O)c2cccc(Cc3ccccc3)c2c1O [Example 11, (Z)-2-(5-benzyl-4-hydroxy-3-methoxy-1-naphthyl)-4-phenyl-2-butenoic acid] | 1090 nM | 1880 nM
COc1cc(/C(=C/C2CCCCC2)C(=O)O)c2cccc(Cc3ccccc3)c2c1O [Example 12, (Z)-2-(5-benzyl-4-hydroxy-3-methoxy-1-naphthyl)-3-cyclohexyl-2-propenoic acid] | 10000 nM | 3540 nM
C/C=C(/C(=O)O)c1cc(OC)c(O)c2c(Cc3ccccc3)cccc12 [Example 40, (E)-2-(5-Benzyl-4-hydroxy-3-methoxy-1-naphthyl)-2-butenoic acid] | 3160 nM | 2040 nM
COc1cc(C(C(=O)O)=C(Cl)Cl)c2cccc(Cc3ccccc3)c2c1O [Example 55, 2-(5-Benzyl-4-hydroxy-3-methoxy-1-naphthyl)-3,3-dichloro-2-propenoic acid] | 2350 nM | 280 nM

These reach a lower IC50 [1]. Values come first.

IC50 [1] | IC50 [2] | SMILES
510 nM | 420 nM | C/C=C(\C(=O)O)c1cc(OC)c(O)c2c(Cc3ccccc3)cccc12 [Example 1, (Z)-2-(5-Benzyl-4-hydroxy-3-methoxy-1-naphthyl)-2-butenoic acid]
320 nM | 620 nM | CC/C=C(\C(=O)O)c1cc(OC)c(O)c2c(Cc3ccccc3)cccc12 [Example 2, (Z)-2-(5-Benzyl-4-hydroxy-3-methoxy-1-naphthyl)-2-pentenoic acid]
520 nM | 1450 nM | CCC/C=C(\C(=O)O)c1cc(OC)c(O)c2c(Cc3ccccc3)cccc12 [Example 3, (Z)-2-(5-Benzyl-4-hydroxy-3-methoxy-1-naphthyl)-2-hexenoic acid]
510 nM | 1640 nM | C=CC/C=C(\C(=O)O)c1cc(OC)c(O)c2c(Cc3ccccc3)cccc12 [Example 5, (Z)-2-(5-Benzyl-4-hydroxy-3-methoxy-1-naphthyl)-2,5-hexadienoic acid]
830 nM | 3350 nM | COc1cc(/C(=C/C(C)(C)C)C(=O)O)c2cccc(Cc3ccccc3)c2c1O [Example 13, (Z)-2-(5-benzyl-4-hydroxy-3-methoxy-1-naphthyl)-4,4-dimethyl-2-pentenoic acid]
720 nM | 3230 nM | C=C(C(=O)O)c1cc(OC)c(O)c2c(Cc3ccccc3)cccc12 [Example 14, 2-(5-benzyl-4-hydroxy-3-methoxy-1-naphthyl)-2-propenoic acid]
730 nM | 1070 nM | COc1cc(C(C(=O)O)=C(C)C)c2cccc(Cc3ccccc3)c2c1O [Example 15, 2-(5-benzyl-4-hydroxy-3-methoxy-1-naphthyl)-3-methyl-2-butenoic acid]
